Measured values reported in patent US20230248665A1, “COMPOSITION COMPRISING DIMETHYLCHALCONE DERIVATIVE FOR PREVENTION OR TREATMENT OF METABOLIC DISEASE” (SEOUL NATIONAL UNIVERSITY R & DB FOUNDATION, priority 2020, published 2023).

Key:
Type in all cases: cell-based
AMPK = AMPK activity, western blotting of phosphorylated AMPK in C2C12 myotubes; conditions: FIG. 2
Excerpt: AMP-activated protein kinase (AMPK) is a member of serine/threonine kinases, and is an enzyme known as an energy sensor which senses the intracellular energy state. Moreover, the activation of AMPK is known to show the effect of increasing glucose transport and promoting fatty acid oxidation in skeletal muscle, and to […] the synthesis of cholesterol and triglycerides, decrease lipogenesis, and increase fatty acid oxidation, and ketogenesis, and the like in the liver. Further, the activation of AMPK is known to reduce adipogenesis in adipose tissue and increase insulin secretion in pancreatic beta cells, thereby being able to be applied to the treatment of various metabolic diseases. Therefore, western blotting was performed in order to confirm the effect of the DMC derivatives of Example 1 on AMPK activity. More specifically, the C2C12 myoblasts were primarily cultured in DMEM supplemented with 10% fetal bovine serum, and then cultured in DMEM supplemented with 2% horse serum for 5 days to differentiate into myotubes. Then, the differentiated myotubes were treated with 10 µM DMC derivative and cultured for 24 hours, and then cells were collected, and disrupted using an ultrasonic disperser to obtain proteins. Next, western blotting was performed using a pAMPK antibody (Cell Signaling Technology) and an AMPK antibody (Cell Signaling Technology) to measure the amount of phosphorylated AMPK. 1 mM AICAR was used as a positive control, and 20 µg of protein was used for each sample in western blotting.

[1] = system: human kidney proximal tubule epithelial cell (HK-2) cell line; assay: Antioxidant effect, intracellular reactive oxygen species (DCF-DA) in HK-2 kidney cells after H2O2; conditions: 1 µM for 18 hours, then 500 µM H2O2 for 6 hours, FIG. 6
Experimental: First, the antioxidant effect was checked using kidney cells. More specifically, a human kidney proximal tubule epithelial cell (HK-2) cell line was treated with 1 µM DMC derivative and cultured for 18 hours. Then, 500 µM H2O2 was added to the culture medium and the culture medium was incubated for 6 hours. Thereafter, the amount of intracellular reactive oxygen species (iROS) was measured using dichlorohydro-fluorescein diacetate (DCF-DA).

[2] = system: rat aortic smooth muscle cells; assay: PDGF-induced migration of vascular smooth muscle cells; conditions: 1 µM with 10 ng/mL PDGF; FIG. 4
Experimental: Proliferation and migration of vascular smooth muscle cells are known to be essential steps in the progression of vascular diseases such as restenosis and arteriosclerosis. Therefore, in order to confirm the effect of the DMC derivatives of Example 1 on the migration of rat aortic smooth muscle cells, smooth muscle cells were treated with 10 ng/mL platelet-derived growth factor (PDGF) and 1 µM DMC derivative and cultured. Then, the degree of cell migration was measured.

Row | Structure (SMILES) | activity of AMPK (phosphorylated AMPK) (AMPK; positive control 1 mM AICAR) | amount of intracellular reactive oxygen species (ROS) [1] | migration of vascular smooth muscle cells [2] | activity of AMPK (phosphorylated AMPK) (AMPK; 10 µM, 24 hours)
1 | NC(=O)c1ncn([C@@H]2O[C@H](CO)[C@@H](O)[C@H]2O)c1N [AICAR, reference compound] | increased the activity of AMPK | – | – | –
2 | COc1c(C)c(O)c(C)c(O)c1C(=O)/C=C/c1ccc(C(C)C)cc1 [Chemical Formula 4, 1-(2′,4′-dihydroxy-6′-methoxy-3′,5′-dimethylphenyl)-3-(4-isopropylphenyl)-2-propen-1-one] | – | effectively reduced ROS | similarly or more effectively suppressed cell migration by PDGF than AICAR and Rosi, which were used as positive controls, and DMC | –
3 | COc1ccc(/C=C/C(=O)c2c(O)c(C)c(O)c(C)c2OC)cc1 [Chemical Formula 5, 1-(2′,4′-dihydroxy-6′-methoxy-3′,5′-dimethylphenyl)-3-(4-methoxyphenyl)-2-propen-1-one] | – | – | – | increased the activity of AMPK similarly to or more effectively than the positive controls
4 | COc1c(C)c(OC)c(C(=O)/C=C/c2ccc(F)cc2)c(OC)c1C [Chemical Formula 16, 1-(3′,5′-dimethyl-2′,4′,6′-trimethoxyphenyl)-3-(4-fluorophenyl)-2-propen-1-one] | – | effectively reduced ROS | similarly or more effectively suppressed cell migration by PDGF than AICAR and Rosi, which were used as positive controls, and DMC | –
5 | COc1c(C)c(OC)c(C(=O)/C=C/c2ccccc2)c(OC)c1C [Chemical Formula 17, 1-(3′,5′-dimethyl-2′,4′,6′-trimethoxyphenyl)-3-phenyl-2-propen-1-one] | – | effectively reduced ROS | similarly or more effectively suppressed cell migration by PDGF than AICAR and Rosi, which were used as positive controls, and DMC | –
6 | COc1c(C)c(OC)c(C(=O)/C=C/c2ccc(C)cc2)c(OC)c1C [Chemical Formula 18, 1-(3′,5′-dimethyl-2′,4′,6′-trimethoxyphenyl)-3-(4-tolyl)-2-propen-1-one] | – | – | similarly or more effectively suppressed cell migration by PDGF than AICAR and Rosi, which were used as positive controls, and DMC | –
7 | COc1c(C)c(OC)c(C(=O)/C=C/c2ccc(C(C)C)cc2)c(OC)c1C [Chemical Formula 19, 1-(3′,5′-dimethyl-2′,4′,6′-trimethoxyphenyl)-3-(4-isopropylphenyl)-2-propen-1-one] | – | – | similarly or more effectively suppressed cell migration by PDGF than AICAR and Rosi, which were used as positive controls, and DMC | increased the activity of AMPK similarly to or more effectively than the positive controls
8 | COCOc1ccc(/C=C/C(=O)c2c(OC)c(C)c(OC)c(C)c2OC)cc1 [Chemical Formula 20, 1-(3′,5′-dimethyl-2′,4′,6′-trimethoxyphenyl)-3-(4-methoxymethoxyphenyl)-2-propen-1-one] | – | effectively reduced ROS | similarly or more effectively suppressed cell migration by PDGF than AICAR and Rosi, which were used as positive controls, and DMC | increased the activity of AMPK similarly to or more effectively than the positive controls
9 | COc1ccc(/C=C/C(=O)c2c(OC)c(C)c(OC)c(C)c2OC)cc1 [Chemical Formula 21, 1-(3′,5′-dimethyl-2′,4′,6′-trimethoxyphenyl)-3-(4-methoxyphenyl)-2-propen-1-one] | – | – | similarly or more effectively suppressed cell migration by PDGF than AICAR and Rosi, which were used as positive controls, and DMC | increased the activity of AMPK similarly to or more effectively than the positive controls
10 | COc1c(C)c(OC)c(C(=O)/C=C/c2ccc(O)cc2)c(OC)c1C [Chemical Formula 22, 1-(3′,5′-dimethyl-2′,4′,6′-trimethoxyphenyl)-3-(4-hydroxyphenyl)-2-propen-1-one] | – | – | similarly or more effectively suppressed cell migration by PDGF than AICAR and Rosi, which were used as positive controls, and DMC | increased the activity of AMPK similarly to or more effectively than the positive controls
11 | COCOc1c(C)c(O)c(C(=O)/C=C/c2ccc(C)cc2)c(OC)c1C [Chemical Formula 26, 1-(2′-hydroxy-4′-(methoxymethoxy)-6′-methoxy-3′,5′-dimethylphenyl)-3-(4-tolyl)-2-propen-1-one] | – | – | similarly or more effectively suppressed cell migration by PDGF than AICAR and Rosi, which were used as positive controls, and DMC | increased the activity of AMPK similarly to or more effectively than the positive controls
12 | COCOc1c(C)c(O)c(C(=O)/C=C/c2ccc(C(C)C)cc2)c(OC)c1C [Chemical Formula 27, 1-(2′-hydroxy-4′-(methoxymethoxy)-6′-methoxy-3′,5′-dimethylphenyl)-3-(4-isopropylphenyl)-2-propen-1-one] | – | – | similarly or more effectively suppressed cell migration by PDGF than AICAR and Rosi, which were used as positive controls, and DMC | increased the activity of AMPK similarly to or more effectively than the positive controls
13 | COCOc1ccc(/C=C/C(=O)c2c(O)c(C)c(OCOC)c(C)c2OC)cc1 [Chemical Formula 28, 1-(2′-hydroxy-4′-(methoxymethoxy)-6′-methoxy-3′,5′-dimethylphenyl)-3-(4-methoxymethoxyphenyl)-2-propen-1-one] | – | – | similarly or more effectively suppressed cell migration by PDGF than AICAR and Rosi, which were used as positive controls, and DMC | increased the activity of AMPK similarly to or more effectively than the positive controls
14 | COCOc1c(C)c(O)c(C(=O)/C=C/c2ccc(OC)cc2)c(OC)c1C [Chemical Formula 29, 1-(2′-hydroxy-4′-(methoxymethoxy)-6′-methoxy-3′,5′-dimethylphenyl)-3-(4-methoxyphenyl)-2-propen-1-one] | – | – | similarly or more effectively suppressed cell migration by PDGF than AICAR and Rosi, which were used as positive controls, and DMC | increased the activity of AMPK similarly to or more effectively than the positive controls
15 | COc1c(C)c(O)c(C)c(O)c1C(=O)/C=C/c1ccccc1F [Chemical Formula 31, 1-(2′,4′-dihydroxy-6′-methoxy-3′,5′-dimethylphenyl)-3-(2-fluorophenyl)-2-propen-1-one] | – | effectively reduced ROS | similarly or more effectively suppressed cell migration by PDGF than AICAR and Rosi, which were used as positive controls, and DMC | increased the activity of AMPK similarly to or more effectively than the positive controls
16 | COc1c(C)c(O)c(C)c(O)c1C(=O)/C=C/c1cccc(F)c1 [Chemical Formula 32, 1-(2′,4′-dihydroxy-6′-methoxy-3′,5′-dimethylphenyl)-3-(3-fluorophenyl)-2-propen-1-one] | – | – | – | increased the activity of AMPK similarly to or more effectively than the positive controls
17 | COCOc1c(C)c(O)c(C(=O)/C=C/c2ccccc2F)c(OC)c1C [Chemical Formula 34, 1-(2′-hydroxy-4′-(methoxymethoxy)-6′-methoxy-3′,5′-dimethylphenyl)-3-(2-fluorophenyl)-2-propen-1-one] | – | – | similarly or more effectively suppressed cell migration by PDGF than AICAR and Rosi, which were used as positive controls, and DMC | –
18 | COc1c(C)c(O)c(C)c(O)c1C(=O)/C=C/c1ccccc1Cl [Chemical Formula 37, 1-(2′,4′-dihydroxy-6′-methoxy-3′,5′-dimethylphenyl)-3-(2-chlorophenyl)-2-propen-1-one] | – | – | similarly or more effectively suppressed cell migration by PDGF than AICAR and Rosi, which were used as positive controls, and DMC | increased the activity of AMPK similarly to or more effectively than the positive controls
19 | COc1c(C)c(O)c(C)c(O)c1C(=O)/C=C/c1ccccc1 [DMC, 2′,4′-dihydroxy-6′-methoxy-3′,5′-dimethylchalcone, reference compound] | – | – | – | increased the activity of AMPK
